# In article PMC5141248 (Biochemistry, 2016):
# Target: human CP4H1 (Homo sapiens, UniProt P13674)
# Experiment: UPLC peptide hydroxylation assay
# Assay type: biochemical
# Details: turnover; cosubstrate 0.1-10 mM, dansylGlyProProGlyOEt 500 μM, Fe(II) 50 μM, ascorbate 2 mM, pH 7.8, 30 °C
# human CP4H1, sequence (P13674 18-534): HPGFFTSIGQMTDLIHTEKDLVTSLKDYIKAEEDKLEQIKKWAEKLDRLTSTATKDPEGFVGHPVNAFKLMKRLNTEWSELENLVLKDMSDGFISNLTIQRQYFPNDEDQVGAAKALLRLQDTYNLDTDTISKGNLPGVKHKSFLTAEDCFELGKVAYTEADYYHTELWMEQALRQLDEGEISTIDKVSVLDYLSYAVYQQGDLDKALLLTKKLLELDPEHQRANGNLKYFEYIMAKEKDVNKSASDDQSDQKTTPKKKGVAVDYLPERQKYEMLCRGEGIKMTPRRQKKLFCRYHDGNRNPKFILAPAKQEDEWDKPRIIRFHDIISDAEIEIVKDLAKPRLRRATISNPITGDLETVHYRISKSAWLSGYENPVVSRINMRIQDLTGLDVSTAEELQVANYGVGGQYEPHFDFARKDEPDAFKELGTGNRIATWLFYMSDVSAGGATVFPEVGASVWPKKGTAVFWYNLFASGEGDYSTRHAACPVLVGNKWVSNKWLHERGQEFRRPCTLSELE
# human CP4H1, sequence (P07237 18-508 partner): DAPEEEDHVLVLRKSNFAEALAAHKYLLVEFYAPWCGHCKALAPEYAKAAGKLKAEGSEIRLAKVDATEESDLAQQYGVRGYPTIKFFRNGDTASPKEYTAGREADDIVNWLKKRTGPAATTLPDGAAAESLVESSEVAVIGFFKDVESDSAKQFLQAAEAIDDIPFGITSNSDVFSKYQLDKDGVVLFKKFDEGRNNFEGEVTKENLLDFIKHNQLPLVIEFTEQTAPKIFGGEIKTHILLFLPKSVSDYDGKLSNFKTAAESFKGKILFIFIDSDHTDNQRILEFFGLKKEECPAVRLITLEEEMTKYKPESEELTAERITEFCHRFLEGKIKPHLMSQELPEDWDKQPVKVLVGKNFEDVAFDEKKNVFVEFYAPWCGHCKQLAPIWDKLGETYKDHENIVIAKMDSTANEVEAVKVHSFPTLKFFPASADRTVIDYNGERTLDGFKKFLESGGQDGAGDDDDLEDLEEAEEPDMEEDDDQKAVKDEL
structure (smiles),measurement,value
O=C(O)CCC(=O)C(=O)O [α-ketoglutarate],UPLC peptide hydroxylation assay,the reaction was initiated by the addition of α-ketoglutarate
